Laboratory results taken from US10156566B2, “Detoxification of microbial virulence factors in oral cavity” (priority 2015, dated 2018).
Values joined by “and” are separate entries in the source; they are usually repeats but may differ in a detail not shown here. Equal values may be shown once. Read-outs that look alike come from different tables or passages of the source.

Key:
[1] = tested on: E. coli LPS; assay: Displacement of LPS from binding to BODIPY TR cadaverine (Tables 3, 9, 12, 13); conditions: E. coli LPS 15 μg/ml
[2] = tested on: P. gingivalis LPS 1690; type: biochemical
Method: (§1) The Limulus Amebocyte Lysate Assay (LAL) is an assay to determine the total amount of lipopolysaccharide (LPS) in the sample tested (Pierce LAL Chromogenic Endotoxin Quantitation Kit, ThermoFischer Scientific, Waltham, Mass.). The assay was performed following manufacturer's instruction. Ninety-six-well microplates were first equilibrated in a heating block for 10 min at 37° C. Fifty μl each of standard or sample was dispensed into the microplate wells and incubated with the plate covered for 5 min at 37° C. Then 50 μl LAL was added to each well.
(§2) Plates were shaken gently and incubated for 10 min at 37° C. 100 μl of chromogenic substrate was added and incubated for 6 min at 37° C.
(§3) The Thermo Scientific Pierce LAL Chromogenic Endotoxin Quantitation Kit is a quantitative endpoint assay for the detection of LPS, which catalyzes the activation of a proenzyme in the modified Limulus Amebocyte Lysate (LAL). The activated proenzyme then splits p-Nitroaniline (pNA) from the colorless substrate, Ac-Ile-Glu-Ala-Arg-pNA. […] Then 50 μl LAL was added to each well. Plates were shaken gently and incubated for 10 min at 37° C. 100 μl of chromogenic substrate was added and incubated for 6 min at 37° C.

[3] = tested on: E. coli LPS; type: biochemical
Method: as §1, §2, §3

[4] = tested on: THP-1 cells; assay: LPS stimulated cytokine production in THP-1 cells with citrulline; type: cell-based, human; conditions: 0.3 mM to 9 mM; 300 ng/ml LPS; 24 hours
Method: Citrulline was purchased from Sigma-Aldrich (St. Louis, Mo.). THP1-Dual™ cells were purchased from Invivogen (San Diego, Calif.). Cells were cultured following the manufacturer's instruction, as described in EXAMPLE 11. For treatment, 0.3 mM to 9 mM of citrulline were first added to the culture medium. […] After 24 hours of treatment, media was collected and analyzed for cytokine production using 9-plex kit (Meso Scale Diagnostics Rockville, Md.).

[5] = tested on: Lipopolysaccharide
[6] = molecular target: T1, TLR2 (Homo sapiens, UniProt O60603); type: cell-based; conditions: stannous 1000 uM; P. gingivalis LPS
T1 construct: host or cells: human HEK 293T cells
T1 sequence (O60603 21-784): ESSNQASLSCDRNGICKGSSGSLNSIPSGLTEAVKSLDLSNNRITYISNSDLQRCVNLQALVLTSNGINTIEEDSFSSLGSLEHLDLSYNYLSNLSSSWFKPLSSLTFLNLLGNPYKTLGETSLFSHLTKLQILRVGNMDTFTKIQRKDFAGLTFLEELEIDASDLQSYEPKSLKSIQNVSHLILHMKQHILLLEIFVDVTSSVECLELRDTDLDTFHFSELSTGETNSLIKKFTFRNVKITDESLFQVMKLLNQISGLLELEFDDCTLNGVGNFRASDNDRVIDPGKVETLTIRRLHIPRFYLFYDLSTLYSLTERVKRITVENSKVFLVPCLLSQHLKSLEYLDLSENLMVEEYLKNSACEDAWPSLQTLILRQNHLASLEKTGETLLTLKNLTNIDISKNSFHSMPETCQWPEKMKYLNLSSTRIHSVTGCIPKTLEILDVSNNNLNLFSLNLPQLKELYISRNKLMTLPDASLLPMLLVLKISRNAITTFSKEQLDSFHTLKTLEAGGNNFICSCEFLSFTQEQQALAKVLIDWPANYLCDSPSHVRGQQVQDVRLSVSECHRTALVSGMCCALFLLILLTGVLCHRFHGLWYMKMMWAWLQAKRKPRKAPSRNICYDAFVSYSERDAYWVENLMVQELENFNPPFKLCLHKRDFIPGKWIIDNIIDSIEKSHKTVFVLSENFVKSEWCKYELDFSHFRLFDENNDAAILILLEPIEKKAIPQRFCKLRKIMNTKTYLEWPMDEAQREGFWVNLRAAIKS
Source text: The cell line is named here as TLR2-SEAP. The reporter gene encodes a secreted enzyme, called embryonic alkaline phosphatase or SEAP. The SEAP reporter is placed under the control of the interferon-β minimal promoter fused to five NFkB and AP-1-binding sites. Furthermore, a CD14 co-receptor gene was transfected into the reporter gene cells expressing TLR2, as CD14 has been identified as a co-receptor for TLR2 ligands to enhance the TLR response. The CD14 co-receptor is needed to transfer LTA to TLR2 receptors. The recombinant TLR2 binds its ligand, or distinct pathogen-associated molecule, initiates a chain of responses, leading to recruitment of NFkB and API transcription factors to the reporter gene promoter, which induce expression of SEAP.
For treatment with LTA, wells of a 96-well plate were seeded with 10,000 cells/well in 100 μL of growth medium. […] On day 4, medium (100 μL) was changed to DMEM medium without fetal calf serum. […] Samples were taken 24 hours later, following addition of samples. Expression of the reporter gene (SEAP) was quantified with a commercially available kit (SEAP Reporter Gene Assay of Cayman Chemical Co., Ann Arbor, Mich.).

[7] = tested on: NFkB-SEAP reporter gene; assay: THP1-Dual reporter cells, NFkB-SEAP; type: cell-based, human; conditions: dose dependent
Source text: (§4) THP1 NFkB-SEAP and IRF-Lucia™ Reporter Monocytes were purchased from Invivogen, San Diego, Calif. THP1-Dual cells were derived from the human THP-1 monocyte cell line by stable integration of two inducible reporter constructs. THP1-Dual cells feature the Lucia gene under the control of an ISG54 (interferon-stimulated gene) minimal promoter in conjunction with five interferon-stimulated response elements. THP1-Dual cells also express a SEAP reporter gene driven by an IFN-b minimal promoter fused to five copies of the NF-kB consensus transcriptional response element and three copies of the c-Rel binding site. As a result, THP1-Dual cells allow the simultaneous study of the NFkB pathway, by monitoring the activity of SEAP, and the interferon regulatory factor (IRF) pathway, by assessing the activity of Lucia (IRF-Luc). Both reporter proteins are readily measurable in the cell culture supernatant.
(§5) Cells were passed every 3 to 4 days by inoculating 300,000-500,000 cells/ml into a fresh T75 flask with 15 ml of fresh growth medium. […] After incubation for 18 hours at 37° C. and 5% CO2, secreted luciferase and SEAP were quantified with commercially available assay kits (QUANTI-Luc of Invivogen, San Diego, Calif. for luciferase; SEAP Reporter Gene Assay of Cayman Chemical Co., Ann Arbor, Mich. for SEAP).

[8] = tested on: IRF-luciferase reporter gene; assay: THP1-Dual reporter cells, IRF-Lucia luciferase; type: cell-based, human
Source text: as §4, §5

[9] = tested on: human primary monocytes; assay: LPS-stimulated cytokine production in human primary monocytes; type: cell-based
Method: The primary human monocytes were purchased from Astarte Biologics (Bothell, Wash.). […] The medium was harvested at 24 hours after adding LPS and SnF2, and analyzed for proinflammatory cytokines in a kit following manufacturer's instruction (Meso Scale Diagnostics, Rockville, Md.).

[10] = tested on: E. coli LPS
Method: 0.7 ul of the sample solution was spotted on a MALDI plate, air-dried, and analyzed in negative ion mode using a MALDI-TOF/TOF 4800 plus system (AB-Sciex, Framingham, Mass., USA). Typical data acquisition uses mass scan range 500-3000 Da and a laser power of 4500. Data was collected in an automated fashion using random sampling over the sample spot with 250 shots per subspectrum and a total of 2500 shots per spectrum.

[11] = molecular target: T2, TLR4 (Homo sapiens, UniProt O00206+Q9Y6Y9); type: cell-based; set-up: host or cells: human HEK 293T cells; conditions: for reduction of P. gingivalis LPS activation on the TLR4 reporter system: P. gingivalis LPS 500 ng/ml
Target sequence in this assay (O00206 24-839): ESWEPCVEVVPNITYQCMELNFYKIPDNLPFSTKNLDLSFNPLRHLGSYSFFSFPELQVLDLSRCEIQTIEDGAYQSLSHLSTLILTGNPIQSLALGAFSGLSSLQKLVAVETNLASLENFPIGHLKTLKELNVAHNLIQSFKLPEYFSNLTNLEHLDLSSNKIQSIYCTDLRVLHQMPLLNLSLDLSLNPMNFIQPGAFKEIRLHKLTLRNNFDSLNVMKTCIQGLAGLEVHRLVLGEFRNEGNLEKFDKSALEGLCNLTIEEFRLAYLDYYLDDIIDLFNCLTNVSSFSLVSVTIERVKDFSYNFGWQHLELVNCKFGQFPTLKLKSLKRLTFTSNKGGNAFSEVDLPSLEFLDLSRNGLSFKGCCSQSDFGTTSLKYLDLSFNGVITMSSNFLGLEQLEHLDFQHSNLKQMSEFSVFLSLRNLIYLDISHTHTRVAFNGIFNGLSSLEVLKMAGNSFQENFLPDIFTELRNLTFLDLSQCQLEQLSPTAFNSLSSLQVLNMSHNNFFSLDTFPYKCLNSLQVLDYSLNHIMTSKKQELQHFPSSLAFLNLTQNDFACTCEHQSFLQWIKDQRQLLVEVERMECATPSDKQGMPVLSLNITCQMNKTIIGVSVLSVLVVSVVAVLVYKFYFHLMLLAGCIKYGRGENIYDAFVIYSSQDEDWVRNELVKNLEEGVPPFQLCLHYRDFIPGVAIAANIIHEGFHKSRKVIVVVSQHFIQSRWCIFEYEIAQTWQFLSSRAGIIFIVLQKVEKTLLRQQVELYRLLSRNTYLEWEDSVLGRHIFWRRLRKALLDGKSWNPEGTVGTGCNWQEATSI
Target sequence in this assay (Q9Y6Y9 17-160 limits assumed): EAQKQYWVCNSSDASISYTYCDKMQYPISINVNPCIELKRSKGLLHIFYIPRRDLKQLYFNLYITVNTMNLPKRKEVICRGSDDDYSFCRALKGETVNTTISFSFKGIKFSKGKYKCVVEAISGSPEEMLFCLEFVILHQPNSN
Source text: The cell line is named here as TLR4-SEAP. The reporter gene encodes a secreted enzyme, called embryonic alkaline phosphatase or SEAP. The SEAP reporter is placed under the control of an IL-12 p40 minimal promoter fused to five NF-κB and AP-1-binding sites. Furthermore, the TLR4-SEAP cell line also contains a CD14 co-receptor gene, which is needed to transfer LPS to TLR4 receptors. The recombinant TLR binds its ligand, or distinct pathogen-associated molecule, initiates a chain of responses, leading to recruitment of NFkB and API transcription factors to the reporter gene promoter, which induce expression of SEAP.
For treatment, wells of a 96-well plate were seeded with 10,000 cells/well in 100 μL of growth medium. […] On day 4, medium was changed to assay medium (90 μl), which is the DMEM medium without fetal calf serum. […] 10 μl of the bacteria, LPS and culture medium of bacterial growth were added to the TLR4-SEAP cells. Samples were taken 24 hours later, following addition of LPS, bacteria, and culture medium. Expression of the reporter gene (SEAP) was quantified with a commercially available kit (SEAP Reporter Gene Assay of Cayman Chemical Co., Ann Arbor, Mich.).
EC50 was calculated using GraphPad Prism software (GraphPad Software, La Jolla, Calif.).
Tests were conducted to understand whether stannous fluoride could reduce LPS's ability to trigger proinflammatory responses in host cells.

[12] = molecular target: T2, TLR4; assay: cell-based; type: cell-based; set-up: host or cells: HEK-Blue-hTLR4 (HEK 293T); conditions: for Average fluorescence intensity (FI): Control 1027
Target sequence in this assay (O00206 24-839): as the sequence (O00206 24-839) above
Target sequence in this assay (Q9Y6Y9 17-160): as the sequence (Q9Y6Y9 17-160 limits assumed) above
Method: Stannous fluoride, Cetylpyridium chloride (CPC) and Triclosan were purchased from Sigma-Aldrich, St. Louis, Mo. […] The growth medium: DMEM, with 4.5 g/l glucose, supplemented 10% fetal bovine serum, 50 U/ml penicillin and streptomycin, 100 μg/ml Normocin, and 2 mM L-glutamine, purchased from Thermo Fisher, Waltham, Mass.

[13] = molecular target: T3, TLR5 (Homo sapiens, UniProt O60602); assay: TLR5-NFkB-SEAP reporter gene assay in HEK 293T cells; type: cell-based
T3 construct: host or cells: human HEK 293T cells
T3 sequence (O60602 21-858): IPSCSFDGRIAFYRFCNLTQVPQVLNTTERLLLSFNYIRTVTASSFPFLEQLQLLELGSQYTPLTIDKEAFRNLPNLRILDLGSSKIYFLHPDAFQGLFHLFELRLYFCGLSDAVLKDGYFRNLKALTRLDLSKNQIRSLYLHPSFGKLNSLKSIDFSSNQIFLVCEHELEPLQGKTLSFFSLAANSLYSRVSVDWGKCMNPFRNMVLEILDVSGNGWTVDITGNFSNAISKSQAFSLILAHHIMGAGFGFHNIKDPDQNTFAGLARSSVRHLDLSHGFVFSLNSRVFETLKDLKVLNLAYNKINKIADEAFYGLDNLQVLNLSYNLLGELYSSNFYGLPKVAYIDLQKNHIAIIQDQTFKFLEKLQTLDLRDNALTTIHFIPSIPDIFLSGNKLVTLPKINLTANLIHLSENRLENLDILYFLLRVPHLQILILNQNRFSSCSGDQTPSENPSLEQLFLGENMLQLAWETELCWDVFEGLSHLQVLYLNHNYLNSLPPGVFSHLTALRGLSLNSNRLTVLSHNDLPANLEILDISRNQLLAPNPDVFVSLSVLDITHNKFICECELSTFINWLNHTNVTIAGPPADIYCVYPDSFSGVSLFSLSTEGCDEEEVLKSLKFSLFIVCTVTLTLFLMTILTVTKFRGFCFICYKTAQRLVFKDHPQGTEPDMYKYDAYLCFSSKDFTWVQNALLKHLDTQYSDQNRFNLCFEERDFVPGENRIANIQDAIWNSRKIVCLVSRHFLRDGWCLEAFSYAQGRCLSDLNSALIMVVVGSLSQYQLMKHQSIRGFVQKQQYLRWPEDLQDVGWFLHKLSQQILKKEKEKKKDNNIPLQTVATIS
Method: The cell line was named as TLR5-NFkB-SEAP.
S. subtilis and S. aureus flagellin were added at a range of concentration from 0.97 ng to 1 μg/ml. […]

Compound	LPS displacement % Mean [1] [%]	LPS displacement % Reading 1 [1] [%]	LPS displacement % Reading 3 [1] [%]	LPS displacement % Reading 2 [1] [%]	inhibition [5]	other results
1,3-Diphenylacetone (1,3 diphenyl-2-propanone)	11	16	5	–	–	–
CC(O)C(=O)[O-].CC(O)C(=O)[O-].[Zn+2] (racemic) [dl-lactic acid hemizinc salt]	19	15	24	–	–	–
[O-]n1ccccc1=S.[O-]n1ccccc1=S.[Zn+2] [1-Hydroxypyridine-2-thone zinc salt]	–	–	–	–	–	Inhibition of LAL activity % [2]: 0%; Inhibition of LAL activity % [3]: 2% and 6%
CC(C=O)Cc1ccc(C(C)C)cc1 (centres unmarked) [3-(4-Isopropylphenyl)-2-methylpropionaldehyde]	39	21	65	29	–	–
CCCCCCCCCCCC(=O)NCCCN(C)C [3-Dodecanamidopropyldimethylamine]	79	87	87	62	–	–
NC(=O)NCCC[C@H](N)C(=O)O [Citrulline]	–	–	–	–	–	effect on P. gingivalis LPS 1690 stimulated proinflammatory cytokine production (IL-6, TNF-α, IL-12p70, IL-10, IL-2, IFN-r, IL-1β) [4]: inhibited
[Cu+].[I-] [Copper(I) iodide]	18	23	20	12	–	–
C=CC[N+](C)(C)CC=C.[Cl-] [Diallyldimethylammonium chloride]	35	40	28	38	–	–
CCCCCCCCCCCCCCCCCC(=O)NCCN(CC)CC [Diethylaminoethyl stearamide]	66	77	58	62	97.4%	–
CC(C)CCOC(=O)c1ccccc1 [Isopentyl benzoate]	18	22	13	–	–	–
CCCCC/C=C\C/C=C\CCCCCCCC(=O)OC [Methyl linoleate]	88	~100	~100	53	36.9%	–
CCCCCCCCCCCCCC[n+]1ccc(C)cc1.[Cl-] [Myristyl-γ-picolinium chloride]	~100	~100	~100	~100	96.2% and 96%	–
CCCCCCCCCCCCN(C)C [N,N-Dimethyldodecylamine]	22	36	13	18	–	–
CCCCCCCCCCCC[n+]1ccccc1.[Cl-] [N-Laurylpyridinium chloride]	60	66	59	56	96.5%	–
CCCCCCCCCCCCCC(=O)NCC(=O)O [N-Myristoylglycine]	76	~100	74	39	91.4%	–
CCCCCCCCCCCCCCCCCC(=O)OCCNC(=O)C[n+]1ccccc1.[Cl-] [Steapyrium chloride]	~100	~100	~100	100	100%	–
CCCCCCCCCCCCCCCCCC(=O)NCCCN(C)C [Stearylamidopropyldimethylamine]	77	85	74	71	83.8%	–
[F][Sn][F] [Tin (II) fluoride]	–	–	–	–	–	Inhibition of LAL activity % [2]: 60% and 49%; Inhibition of LAL activity % [3]: 92% and 87%; level of P. gingivalis induction of TLR-2 [6]: decreased; expression of the NFKB-SEAP reporter gene by LPS and LTA in THP-1 dual cells [7]: inhibited; luciferase production in THP-1 dual cells stimulated by E. coli LPS [8]: inhibited; cytokine production stimulated by LPS in human primary monocytes ([9]; 100 ng E. coli LPS or P. gingivalis LPS 1690, 24 hours): inhibited; suppression of LPS on IL-8 production in human primary monocytes ([9]; dose-dependent): reversed; binding to E. coli LPS (MALDI-TOF) [10]: binds to E. coli LPS; reduction of P. gingivalis LPS activation on the TLR4 reporter system ([11]; 3.2 mM): about 50%; reduction of P. gingivalis LPS activation on the TLR4 reporter system ([11]; […]): about 50%; level of E. coli induction of TLR-4 ([11]; stannous 500 uM or higher, 100 ng/ml E. coli LPS): decreased; fluorescence intensity of labeled LPS on HEK-Blue-hTLR4 cells [12]: reduced fluorescence intensity significantly; % of control ([12]; 500 μM): 64.5%; Average fluorescence intensity (FI) ([12]; 500 μM): 662; Displacement % of LPS from binding to BODIPY TR cadaverine ([1]; 0.63 mM): 12.69%
Oc1cc(Cl)ccc1Oc1ccc(Cl)cc1Cl [Triclosan (irgasan)]	–	–	–	–	–	Inhibition of LAL activity % [2]: 0%; Inhibition of LAL activity % [3]: 10% and 0%; Average fluorescence intensity (FI) ([12]; 500 μM): 1021; remaining activity at 500 µM ([12]; HEK-Blue hTLR4, read-out: % of control): 99.4%
C=CCCCCCCCCC=O [Undecylenic aldehyde]	22	29	15	–	–	–
CCCCCC(C=O)=Cc1ccccc1 [alpha-Amylcinnamaldehyde]	15	17	13	–	–	–
CCCCCCCC/C=C\CCCCCCCC(=O)O [cis-Oleic acid]	31	54	9	–	61%	–
O=C([O-])C(=O)[O-].[K+].[K+] [potassium oxalate]	–	–	–	–	–	Inhibition of LAL activity % [2]: 8% and 0%; Inhibition of LAL activity % [3]: 1% and 6%
[F-].[Na+] [sodium fluoride]	–	–	–	–	–	Inhibition of LAL activity % [2]: 0%; Inhibition of LAL activity % [3]: 4% and 5%
[Cl][Sn][Cl] [stannous chloride]	–	–	–	–	–	Inhibition of LAL activity % [3]: 89% and 65%
O.O.O=C([O-])CC(O)(CC(=O)[O-])C(=O)[O-].O=C([O-])CC(O)(CC(=O)[O-])C(=O)[O-].[Zn+2].[Zn+2].[Zn+2] [zinc citrate, dihydrate]	–	–	–	–	–	Inhibition of LAL activity % ([2]; citrate, dihydrate): 104% and 57%; Inhibition of LAL activity % ([3]; citrate, dihydrate): 104% and 82%
Flagellin from B. subtilis: flagellin from B. subtilis	–	–	–	–	–	EC50 of flagellin on TLR5 ([13]; at 5 hours): 0.02 ng/mL; EC50 of flagellin on TLR5 ([13]; at 23 hours): 0.014 ng/mL
iron(iii) chloride hexahydrate	~100	~100	~100	100	58.1%	–
